According to ChEMBL document CHEMBL6071148, “Synthesis and biological evaluation of novel 3,6- amide and thioamide substituted- 2,3,4,9-tetrahydro-1H-carbazoles for anti-cancer activity” (Eur J Med Chem, 2024):
Calls of active or inactive are those of the source. The rule behind the calls is not given here.

How the values were obtained:
A549 [1] = test: Induction of apoptosis in human A549 cells assessed as apoptotic rate at IC50 incubated for 24 hrs by Annexin-V and 7-AAD staining based flow cytometric analysis (reference value: 4.56 +/- 0.81%); assay type: functional
HCT-116 [2] = test: Inhibition of cell adhesion in human HCT-116 cells assessed as reduction in cell aggregates formation at IC50 incubated for 48 hrs by inverted phase contrast microscopic analysis; assay type: functional, cell-based
[3] = Cytotoxicity against human MRC5 cells assessed as inhibition of cell proliferation incubated for 72 hrs by MTT assay; assay type: toxicity, cell-based
Mitochondrial membrane [4] = test: Disruption of mitochondrial membrane integrity in human HCT-116 cells assessed as change in mitochondrial size by TEM analysis; assay type: cell membranes
[5] = Toxicity in chicken embryo chorioallantoic membrane assessed as survival rate at 4.5 uM measured at day 6 by Kaplan Mayer survival analysis relative to control; assay type: tissue-based, Gallus gallus
A549 [6] = test: Induction of DNA damage in human A549 cells assessed as increase in gammaH2AX positive cells at IC50 incubated for 48 hrs by PI staining based flow cytometric analysis; assay type: functional, cell-based
Mitochondrial membrane [7] = test: Induction of mitochondrial membrane depolarization in human HCT-116 cells assessed as increase in mitochondrial fission by measuring appearance of shortened mitochondria by confocal microscopic analysis; assay type: cell membranes
A549 [8] = test: Cytotoxicity against human A549 cells assessed as inhibition of cell proliferation incubated for 72 hrs by MTT assay; assay type: functional, cell-based; settings: A549, 72 h
Mitochondrial membrane [9] = test: Disruption of mitochondrial membrane integrity in human HCT-116 cells assessed as disruption of normal mitochondrial distribution by TEM analysis; assay type: cell membranes
Mitochondrial membrane [10] = test: Disruption of mitochondrial membrane potential in human HCT-116 cells assessed as translocation of cytochrome c to cytoplasm at IC50 incubated for 48 hrs by confocal microscopic analysis; assay type: cell membranes
MCF7 [11] = test: Cytotoxicity against human MCF7 cells assessed as inhibition of cell proliferation incubated for 72 hrs by MTT assay; assay type: functional, cell-based; settings: MCF7, 72 h
HCT-116 [12] = test: Induction of DNA damage in human HCT-116 cells assessed as gammaH2AX positive cells at IC50 incubated for 48 hrs by PI staining based flow cytometric analysis (reference value: 6.24 +/- 1.94%); assay type: functional
A549 [13] = test: Inhibition of colony formation in human A549 cells assessed as reduction in clonogenic capacity incubated for 24 hrs by crystal violet staining based analysis; assay type: functional, cell-based
HCT-116 [14] = test: Cytotoxicity against human HCT-116 cells assessed as inhibition of cell proliferation incubated for 72 hrs by MTT assay; assay type: functional, cell-based; settings: HCT-116, 72 h
HCT-116 [15] = test: Induction of cell cycle arrest in human HCT-116 cells assessed as accumulation of cells at S phase at IC50 incubated for 48 hrs by PI staining based flow cytometric analysis; assay type: functional
Mitochondrial membrane [16] = test: Induction of mitochondrial membrane depolarization in human HCT-116 cells assessed as increase in mitochondrial fission by measuring appearance of circular mitochondria by confocal microscopic analysis; assay type: cell membranes
Mitochondrial membrane [17] = test: Induction of mitochondrial membrane depolarization in human HCT-116 cells assessed as increase in mitochondrial fission by measuring appearance of spherical mitochondria by confocal microscopic analysis; assay type: cell membranes
HCT-116 [18] = test: Induction of cell cycle arrest in human HCT-116 cells assessed as accumulation of cells at G1 phase at IC50 incubated for 48 hrs by PI staining based flow cytometric analysis relative to control; assay type: functional
Mitochondrial membrane [19] = test: Disruption of mitochondrial membrane integrity in human HCT-116 cells assessed as mitochondrial swelling by TEM analysis; assay type: cell membranes
[20] = Toxicity in chicken embryo chorioallantoic membrane at nanomolar concentration measured at day 6 by Kaplan Mayer survival analysis; assay type: tissue-based, Gallus gallus; settings: in vivo
Mitochondrial membrane [21] = test: Disruption of mitochondrial membrane integrity in human HCT-116 cells assessed as presence of large mitochondria by TEM analysis; assay type: cell membranes
Mitochondrial membrane [22] = test: Induction of mitochondrial membrane depolarization in human A549 cells assessed as decrease in ratio of J-aggregates to J-monomer incubated for 24 hrs by JC-1 staining based flow cytometric analysis (reference value: 17.72 +/- 3.94%); assay type: cell membranes
HCT-116 [23] = test: Inhibition of colony formation in human HCT-116 cells assessed as reduction in clonogenic capacity incubated for 24 hrs by crystal violet staining based analysis; assay type: functional, cell-based
Mitochondrial membrane [24] = test: Disruption of mitochondrial membrane integrity in human HCT-116 cells assessed as organization of mtDNA nucleoids within cells by TEM analysis; assay type: cell membranes
Mitochondrial membrane [25] = test: Disruption of mitochondrial membrane integrity in human HCT-116 cells assessed as presence of bloated mitochondria by TEM analysis; assay type: cell membranes
[26] = Toxicity in chicken embryo chorioallantoic membrane assessed as survival rate at 1.5 uM measured at day 6 by Kaplan Mayer survival analysis relative to control; assay type: tissue-based, Gallus gallus
Mitochondrial membrane [27] = test: Disruption of mitochondrial membrane integrity in human HCT-116 cells assessed as change in mitochondrial shape by TEM analysis; assay type: cell membranes
Mitochondrial membrane [28] = test: Disruption of mitochondrial membrane integrity in human HCT-116 cells assessed as absence of well-developed cristae by TEM analysis; assay type: cell membranes
HCT-116 [29] = test: Induction of apoptosis in human HCT-116 cells assessed as increase in apoptotic cells incubated for 48 hrs by Annexin-V and 7-AAD staining based flow cytometric analysis (reference value: 6.82 +/- 1.05%); assay type: functional
MCF7 [30] = test: Inhibition of colony formation in human MCF7 cells assessed as reduction in clonogenic capacity incubated for 24 hrs by crystal violet staining based analysis; assay type: functional, cell-based
HCT-116 [31] = test: Induction of cell cycle arrest in human HCT-116 cells assessed as accumulation of cells at G2 phase at IC50 incubated for 24 hrs by PI staining based flow cytometric analysis relative to control; assay type: functional
HCT-116 [32] = test: Induction of apoptosis in human HCT-116 cells assessed as increase in apoptotic cells incubated for 24 hrs by Annexin-V and 7-AAD staining based flow cytometric analysis (reference value: 8.10 +/- 2.16%); assay type: functional
A549 [33] = test: Induction of cell cycle arrest in human A549 cells assessed as accumulation of cells at G2 phase at IC50 incubated for 48 hrs by PI staining based flow cytometric analysis (reference value: 38.15 +/- 1.80%); assay type: functional
A549 [34] = test: Induction of cell cycle arrest in human A549 cells assessed as accumulation of cells at S phase at IC50 incubated for 24 hrs by PI staining based flow cytometric analysis (reference value: 39.41 +/- 2.54%); assay type: functional
Mitochondrial membrane [35] = test: Disruption of mitochondrial membrane integrity in human HCT-116 cells assessed as change in mitochondrial internal organization by TEM analysis; assay type: cell membranes
HCT-116 [36] = test: Induction of cell cycle arrest in human HCT-116 cells assessed as accumulation of cells at G1 phase at IC50 incubated for 24 hrs by PI staining based flow cytometric analysis relative to control; assay type: functional
A549 [37] = test: Inhibition of cell adhesion in human A549 cells assessed as reduction in cell aggregates formation at IC50 incubated for 48 hrs by inverted phase contrast microscopic analysis; assay type: functional, cell-based
A549 [38] = test: Induction of cell cycle arrest in human A549 cells assessed as accumulation of cells at G1 phase at IC50 incubated for 48 hrs by PI staining based flow cytometric analysis (reference value: 53.5 +/- 4.01%); assay type: functional
A549 [39] = test: Induction of apoptosis in human A549 cells assessed as apoptotic rate at IC50 incubated for 48 hrs by Annexin-V and 7-AAD staining based flow cytometric analysis (reference value: 6.56 +/- 1.17%); assay type: functional

CC(=S)NC1CCc2[nH]c3ccc(OC(F)(F)F)cc3c2C1 (centres undefined)
Activity (A549 [1]): 16.64%
inhibition (HCT-116 [2]): Active
IC50 at 72 h [3]: > 50 µM
Activity (Mitochondrial membrane [4]): Active
survival at 4.5 µM [5]: 70%
Activity (A549 [6]): Active
Activity (Mitochondrial membrane [7]): Active
IC50 (A549 [8]): 25.7 µM
Activity (Mitochondrial membrane [9]): Active
Activity (Mitochondrial membrane [10]): Active
IC50 (MCF7 [11]): 31 µM
Activity (HCT-116 [12]): 14.63%
inhibition (A549 [13]): Dose-Dependent Effect
IC50 (HCT-116 [14]): 23.6 µM
Activity (HCT-116 [15]): 18.9%
Activity (Mitochondrial membrane [16]): Active
Activity (Mitochondrial membrane [17]): Active
Activity (HCT-116 [18]): 31.15%
Activity (Mitochondrial membrane [19]): Active
Activity [20]: Non-Toxic
Activity (Mitochondrial membrane [21]): Active
Activity (Mitochondrial membrane [22]): 16.9
inhibition (HCT-116 [23]): Dose-Dependent Effect
Activity (Mitochondrial membrane [24]): Active
Activity (Mitochondrial membrane [25]): Active
survival at 1.5 µM [26]: 70%
Activity (Mitochondrial membrane [27]): Active
Activity (Mitochondrial membrane [28]): Active
Activity (HCT-116 [29]): 45.03%
inhibition (MCF7 [30]): Dose-Dependent Effect
Activity (HCT-116 [31]): 17.95%
Activity (HCT-116 [32]): 17.5%
Activity (A549 [33]): 46.75%
Activity (A549 [34]): 15.45%
Activity (Mitochondrial membrane [35]): Active
Activity (HCT-116 [36]): 16.95%
inhibition (A549 [37]): Active
Activity (A549 [38]): 53.35%
Activity (A549 [39]): 27.97%
